Measurements published in ChEMBL document CHEMBL1201862, “PubChem BioAssay data set” (2004).
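Values below derive from 48-hour exposures of cells grown in 96-well plates, with endpoints linearly interpolated between the two concentrations bracketing the appropriate inhibition level. GI50 = concentration required for 50% inhibition of growth.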 Active and inactive are the calls of the source. Cut-off read from the data, not from the text of the source: active = GI50 up to about 1.1 µM and inactive = higher. Where a SMILES comes first, the peptide text is derived from it. The star is where a group is joined. Boc = CC(C)(C)OC(=O)*; Bn = c1ccc(C*)cc1

Assays:
Test in all cases: NCI tumour cell line growth inhibition, 48 h
A498 = system: A498
A549 = system: A549
ACHN = system: ACHN
COLO 205 = system: COLO 205
HCC 2998 = system: HCC 2998
HCT-116 = system: HCT-116
HCT-15 = system: HCT-15
HOP-62 = system: HOP-62
HT-29 = system: HT-29
LOX IMVI = system: LOX IMVI
MCF7 = system: MCF7
NCI-H23 = system: NCI-H23
OVCAR-4 = system: OVCAR-4
OVCAR-5 = system: OVCAR-5
PC-3 = system: PC-3
RXF 393 = system: RXF 393
SF-268 = system: SF-268
SF-295 = system: SF-295
SNB-19 = system: SNB-19
SR = system: SR

SMILES	GI50 (A498)	GI50 (A549)	GI50 (ACHN)	GI50 (COLO 205)	GI50 (HCC 2998)	GI50 (HCT-116)	GI50 (HCT-15) [µM]	GI50 (HOP-62)	GI50 (HT-29)	GI50 (LOX IMVI)	GI50 (MCF7)	GI50 (NCI-H23)	GI50 (OVCAR-4)	GI50 (OVCAR-5)	GI50 (PC-3)	GI50 (RXF 393)	GI50 (SF-268)	GI50 (SF-295)	GI50 (SNB-19)	GI50 (SR)
CC(=O)OCC1OC(On2ccccc2=S)C(OC(C)=O)C(OC(C)=O)C1OC(C)=O (stereo unspecified)	> 100 µM (inactive)	> 100 µM (inactive)	> 100 µM (inactive)	81.5 µM (inactive)	> 100 µM (inactive)	> 100 µM (inactive)	> 100	> 100 µM (inactive)	78.9 µM (inactive)	> 100 µM (inactive)	> 100 µM (inactive)	> 100 µM (inactive)	> 100 µM (inactive)	> 100 µM (inactive)	69.2 µM (inactive)	> 100 µM (inactive)	> 100 µM (inactive)	> 100 µM (inactive)	> 100 µM (inactive)	
COC(=O)C1=C(C)NC(C)=C(C(=O)OC)C1c1cccc(/[N+]([O-])=C/c2ccccc2)c1		> 100 µM (inactive)	17.1 µM (inactive)	16.8 µM (inactive)	> 100 µM (inactive)	16.7 µM (inactive)	17.1	> 100 µM (inactive)	28.3 µM (inactive)	33.7 µM (inactive)	17.8 µM (inactive)	33.3 µM (inactive)	16.5 µM (inactive)	> 100 µM (inactive)	46.7 µM (inactive)	16.4 µM (inactive)	69.5 µM (inactive)	> 100 µM (inactive)	> 100 µM (inactive)	21.8 µM (inactive)
CC1=C(C(=O)N(C(C)C)C(C)C)CC(C(=O)N(C(C)C)C(C)C)=C(C)N1	35.8 µM (inactive)	> 100 µM (inactive)	> 100 µM (inactive)	> 100 µM (inactive)	> 100 µM (inactive)	> 100 µM (inactive)	> 100	> 100 µM (inactive)	> 100 µM (inactive)	> 100 µM (inactive)	> 100 µM (inactive)	> 100 µM (inactive)	> 100 µM (inactive)	> 100 µM (inactive)	96.6 µM (inactive)	> 100 µM (inactive)	> 100 µM (inactive)	> 100 µM (inactive)	> 100 µM (inactive)	
COC1(OC)CC(CO)(CNc2cc(Cl)nc(N)n2)C1		> 100 µM (inactive)	> 100 µM (inactive)	> 100 µM (inactive)	> 100 µM (inactive)	> 100 µM (inactive)	> 100	> 100 µM (inactive)	> 100 µM (inactive)	> 100 µM (inactive)	> 100 µM (inactive)	> 100 µM (inactive)	> 100 µM (inactive)	> 100 µM (inactive)	> 100 µM (inactive)	55.7 µM (inactive)	> 100 µM (inactive)	> 100 µM (inactive)	> 100 µM (inactive)	> 100 µM (inactive)
O=C(Nc1ccc(S(=O)(=O)/N=c2\ncccn2C(=O)C(C(F)(F)F)C(F)(F)F)cc1)C(C(F)(F)F)C(F)(F)F	> 100 µM (inactive)	> 100 µM (inactive)	> 100 µM (inactive)	> 100 µM (inactive)	> 100 µM (inactive)	> 100 µM (inactive)	> 100	> 100 µM (inactive)	> 100 µM (inactive)	> 100 µM (inactive)	> 100 µM (inactive)	> 100 µM (inactive)	> 100 µM (inactive)	> 100 µM (inactive)	> 100 µM (inactive)	> 100 µM (inactive)	> 100 µM (inactive)	> 100 µM (inactive)	> 100 µM (inactive)	
COC(=O)[C@]1(C)CCC[C@]2(C)[C@@H](CCC(=O)C(C)C)[C@]3(C=O)O[C@@H]3C[C@H]21		> 100 µM (inactive)	27 µM (inactive)	35 µM (inactive)	58.6 µM (inactive)	21.7 µM (inactive)	26.6		38.9 µM (inactive)	24.7 µM (inactive)	33.4 µM (inactive)	28.1 µM (inactive)	24.7 µM (inactive)	> 100 µM (inactive)	28.4 µM (inactive)	19 µM (inactive)	44.1 µM (inactive)	36.1 µM (inactive)	37.2 µM (inactive)	30.7 µM (inactive)
COC(=O)C(CC(C)C)NC(=O)C(C)NC(=O)C(Cc1ccc(OCc2ccccc2)cc1)NC(=O)C(COCc1ccccc1)NC(=O)OC(C)(C)C (stereo unspecified) (Boc-S(Bn)Y(Bn)AL-OMe; configuration not given here)		> 100 µM (inactive)	> 100 µM (inactive)	> 100 µM (inactive)		> 100 µM (inactive)		> 100 µM (inactive)	> 100 µM (inactive)	> 100 µM (inactive)	> 100 µM (inactive)	> 100 µM (inactive)	4.3 µM (inactive)	> 100 µM (inactive)	> 100 µM (inactive)	> 100 µM (inactive)	> 100 µM (inactive)	> 100 µM (inactive)	> 100 µM (inactive)	> 100 µM (inactive)
Cc1nc(=O)c2cc(CN(C)c3ccc(C(=O)N[C@@H](CCC(=O)O)C(=O)O)s3)ccc2[nH]1 [RALTITREXED]		11.9 µM (inactive)	0.0467 µM (active)	> 100 µM (inactive)		0.264 µM (active)	> 100	0.13 µM (active)	> 100 µM (inactive)	0.0303 µM (active)	8.04 µM (inactive)		> 100 µM (inactive)	> 100 µM (inactive)	> 100 µM (inactive)		12.8 µM (inactive)	0.0535 µM (active)	> 100 µM (inactive)	0.0399 µM (active)
